From patent US20220040255A1, “CHEMOTHERAPEUTIC REMODELING OF THE GUT MICROBIOME” (THE SCRIPPS RESEARCH INSTITUTE, priority 2018, published 2022)
Where a SMILES comes first, the peptide text is derived from it. [ ]: non-standard residue; d: D form.

Key:
[1] = test system: cytokines/chemokines in liver tissue; test: cytokines/chemokines in liver tissue by Luminex assay; type: in vivo, LDLr−/− mice
Description: Interleukin-1β (IL-1β) is a proinflammatory cytokine central to the inflammatory response […] the interlukin-6 (IL-6) signaling pathway. […] In addition to IL-1β, a pathogenic role of IL-la in vascular inflammation and atherosclerosis has been described.

[2] = test system: gut microbiota metabolites; test: fecal SCFA and amino acid measurements (LC-MS); type: in vivo, LDLr−/− mice
Experimental: SCFA and amino acid measurements. Fecal SCFA and amino acid content was measured by liquid chromatography-mass spectrometry (LC-MS). The fecal samples were weighed and placed into 2 ml Omni tubes. Ethanol was added to bring the volume to 350 μl. Next, 4 μl of 500 μM d-FA-mix and 20 μl of 1 mM 3CHPA were added to each sample as internal standard. The samples were homogenized using an Omni bead beater at the speed of 4.5 m/s for 30 sec, and then centrifuged at 13,000 rpm for 15 min. 90 μl of the supernatants was transferred into glass HPLC vials. 30 μl of freshly prepared 4×3NPH solution (160 mM 3-nitrophenylhydrazine, 150 mM EDC, pyridine 12% vol, 50% acetonitrile) was added to each sample and the reactions were held at room temperature for 30 min. 2 μl of the sample was injected into the LC-MS (Agilent 1290 HPLC, 6550 qTOF). The concentration of each SCFA and amino acid was calculated based on a standard curve and normalized by the internal control and the feces weight.

[3] = test system: Foxp3+ regulatory T cell (Treg) population; test: quantification of regulatory T cells in lamina propria; type: in vivo, mice
Description: Quantification of regulatory T cells. Lamina propria (LP) immune cells from the small intestine were isolated using lamina propria dissociation kit (Miltenyi Biotec) following the manufacturer's instruction. All antibodies and flow cytometry reagents were obtained from Thermo Fisher. We used FITC anti-CD4 (RM4-5), PE anti-Foxp3 (FJK-16s), PE-Cyanine 7 anti-GATA3 (TWAJ), APC anti ROR gamma t (AFKJS-9), APC-efluor780 anti-Helios (22F6) and e-fluor 450 anti-CD3 (17A2) antibodies. To block non-antigen specific binding of immunoglobulins and discriminate live from dead cells, LP cell suspensions were incubated with mouse BD Fc block (BD Biosciences) and e-fluor 506 fixable viability dye (Thermo Fisher) for 30 minutes on ice. For surface staining, the cells were incubated with antibodies for 25 min, washed and fixed in fixation/permeabilization solution (Thermo Fisher). After being washed with transcription factor wash buffer (Thermo Fisher), cells were stained intracellularly for 45 min at room temperature, washed, and resuspended in PBS. Samples were read in a FACs canto analyzer (BD Biosciences) and analyzed with FACs Diva software v 8.0 (BD Biosciences). Total LP cell numbers were quantified to calculate regulatory T cell ratios. Flow Jo v10 software was used for dot plots generation and final analysis.

[4] = liver tissue, WD-fed LDLr−/− mice, 4 weeks of treatment
[5] = wild-type and LDLr−/− mice fed a WD

For `CC(C)C[C@@H]1NC(=O)[C@@H](Cc2c[nH]c3ccccc23)NC(=O)[C@H](CCCNC(=N)N)NC(=O)[C@@H](CCC(=O)O)NC(=O)[C@H](CCC(N)=O)NC(=O)[C@@H](CCC(=O)O)NC(=O)[C@H](CCCNC(=N)N)NC(=O)[C@@H](Cc2c[nH]c3ccccc23)NC1=O` [c[wLwReQeR]] (cyclo([dW]L[dW]R[dE]Q[dE]R)), the “several cytokine and chemokine levels, including IL-1β, IL-1α, IL-6, and TNF-α” value ([1]; liver tissue from WD animals, treated vs vehicle) was “significant reductions”, the “CCL2 (MCP-1) level” value [1, 4] was 470 ± 150 pg/g tissue and the “CCL3 (MIP-1a) level” value [1, 4] was 200 ± 130 pg/g tissue. For the same molecule, the “CCL4 (MIP-1b) level” value [1, 4] was 3000 ± 1800 pg/g tissue, the “CXCL10 (IP-10) level” value [1, 4] was 1200 ± 380 pg/g tissue and the Eotaxin level [1, 4] was 1200 ± 390 pg/g tissue. It also gave a G-CSF level [1, 4] of 380 ± 150 pg/g tissue, a GM-CSF level [1, 4] of 86 ± 37 pg/g tissue and an IFNg level [1, 4] of 37 ± 16 pg/g tissue. It also gave an IL1a level [1, 4] of 1100 ± 190 pg/g tissue, an IL1b level [1, 4] of 430 ± 100 pg/g tissue and an IL2 level [1, 4] of 80 ± 24 pg/g tissue. The IL3 level [1, 4] was 31 ± 15 pg/g tissue, the IL4 level [1, 4] was 13 ± 8.4 pg/g tissue and the IL6 level [1, 4] was 260 ± 55 pg/g tissue. For the same molecule, the IL7 level [1, 4] was 230 ± 110 pg/g tissue, the IL9 level [1, 4] was 670 ± 160 pg/g tissue and the IL10 level [1, 4] was 160 ± 58 pg/g tissue. The IL13 level [1, 4] was 7.3 ± 5.9 pg/g tissue, the IL-12p40 level [1, 4] was 200 ± 78 pg/g tissue and the IL-12p70 level [1, 4] was 270 ± 140 pg/g tissue. The IL-15 level [1, 4] was 960 ± 370 pg/g tissue, the IL-17 level [1, 4] was 55 ± 16 pg/g tissue and the KC level [1, 4] was 190 ± 20 pg/g tissue. The LIF level [1, 4] was 7.1 ± 4 pg/g tissue, the LIX level [1, 4] was 290 ± 240 pg/g tissue and the M-CSF level [1, 4] was 200 ± 70 pg/g tissue. For the same molecule, the MIG level [1, 4] was 1200 ± 650 pg/g tissue, the RANTES level [1, 4] was 71 ± 61 pg/g tissue and the TNFa level [1, 4] was 77 ± 21 pg/g tissue. The VEGF level [1, 4] was 8.2 ± 3.4 pg/g tissue, the “levels of fatty acids containing 4-6 carbons, including butyrate” value ([2]; fecal samples, two-week treatment) was “increased levels” and the “levels of tryptophan and phenylalanine in the feces” value ([2]; feces, two-week course) was “higher levels”. For the same molecule, the “composition of Foxp3+ regulatory T cell (Treg) population” value [3] was “significantly altered”, the “Helios+/RORγt+ Treg ratio” value [3, 5] was “increased” and the “Helios+/Th17 ratio” value [3, 5] was “increased”.
